This is an account of results in BindingDB's records for doi:10.1021/acs.jmedchem.3c00926 (Yale University, 2023).

For test [1], the target named is T1, Signal transducer and activator of transcription 3 (Homo sapiens, UniProt P40763). In words: Inhibition of IL-23 induced STAT3 phosphorylation in human KIT225 cells by AlphaLISA assay. (In general: In Alpha technology, singlet oxygen from a donor bead excites a nearby acceptor bead.)
Test [2] concerns the target T1, Signal transducer and activator of transcription 3. As to the kind of experiment: Inhibition of IL-23 induced STAT3 phosphorylation in human Jurkat cells incubated for 30 mins by microplate reader analysis.

T1 sequence (P40763 whole entry): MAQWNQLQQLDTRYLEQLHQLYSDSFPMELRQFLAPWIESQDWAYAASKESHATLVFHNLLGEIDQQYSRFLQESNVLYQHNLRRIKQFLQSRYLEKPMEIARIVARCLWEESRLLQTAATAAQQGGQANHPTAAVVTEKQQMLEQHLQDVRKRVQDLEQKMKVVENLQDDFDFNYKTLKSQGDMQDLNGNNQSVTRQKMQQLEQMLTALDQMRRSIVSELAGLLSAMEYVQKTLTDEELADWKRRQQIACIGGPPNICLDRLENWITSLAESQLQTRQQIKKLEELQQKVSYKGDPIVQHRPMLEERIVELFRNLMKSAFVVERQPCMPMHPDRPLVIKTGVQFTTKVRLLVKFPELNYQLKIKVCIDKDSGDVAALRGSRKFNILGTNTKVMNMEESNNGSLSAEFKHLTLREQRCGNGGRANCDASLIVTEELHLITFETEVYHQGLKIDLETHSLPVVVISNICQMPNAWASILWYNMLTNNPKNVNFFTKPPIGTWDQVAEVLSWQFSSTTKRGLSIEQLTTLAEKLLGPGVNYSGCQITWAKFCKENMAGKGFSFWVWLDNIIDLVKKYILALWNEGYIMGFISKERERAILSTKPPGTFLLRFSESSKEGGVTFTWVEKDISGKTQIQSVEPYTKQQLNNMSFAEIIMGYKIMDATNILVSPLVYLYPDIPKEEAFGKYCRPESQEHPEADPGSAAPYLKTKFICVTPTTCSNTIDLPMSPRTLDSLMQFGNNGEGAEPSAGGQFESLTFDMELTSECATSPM

As to `[2H]C([2H])([2H])NC(=O)c1nnc(NC(=O)C2CC2)cc1Nc1ccccc1S(C)(=O)=O`, the IC50 in test [1] amounted to 0.015 µM. This counts as double-digit nanomolar. Consider `[2H]C([2H])([2H])NC(=O)c1nnc(NC(=O)C2CC2)cc1Nc1cccc(-c2ncn(C)n2)c1OC` [Bms-986165], for which, in test [1], the IC50 worked out at 0.089 µM.

Consider `CNC(=O)c1cnc(Nc2ccc(C#N)cn2)cc1Nc1cccc(-c2ncn(C)n2)c1OC`, for which inhibition in test [1] was half-maximal at 0.013 µM (IC50). Compared with the last compound, the IC50 is about 6.8-fold lower. Consider `N#Cc1cc(Nc2cc(NC3CC3)c3ncc(C(N)=O)n3n2)cc(C(F)(F)F)c1`, for which, in test [1], the IC50 came to 8.2 µM.

Compound `CNC(=O)c1cnc(Nc2ccc(F)cn2)cc1Nc1ccccc1S(C)(=O)=O` showed an IC50 in test [1] of 0.23 µM. Take `NC(=O)c1ccccc1Nc1cc(Nc2ccc(F)cn2)ncc1C(N)=O`: the figures for the IC50 in test [2] and in test [1] were 0.089 µM and 0.18 µM, respectively.

By IC50 is commonly meant the concentration needed to halve the response being measured. A lower IC50 goes with higher potency.
